Laboratory results: article PMC4750701, “Role of Mitochondrial RNA Polymerase in the Toxicity of Nucleotide Inhibitors of Hepatitis C Virus” (Antimicrobial Agents and Chemotherapy, 2016)
Each block holds one compound with its values, some of them ahead of it.

How the values were obtained:
RNA PolIII = molecular target: T1, RNA PolIII (Homo sapiens, UniProt O14802+Q9NW08); assay: RNA PolIII inhibition assay; format: biochemical; settings: competing NTP 100 μM CTP and GTP, 500 μM ATP; read-out: Mean IC50 ± SD for RNA PolIII
T1 construct: complexes were isolated from rat NSN1 cells and HeLa cells, respectively; made in house; host or cells: HeLa cells expressing a FLAG-tagged Pol III subunit
Excerpt: Human DNA polymerase alpha, isolated from HeLa cell extracts, was from CHIMERx (Madison, WI). Recombinant human DNA polymerase beta, expressed in E. coli, was a gift from Zucai Suo at The Ohio State University. Recombinant human DNA polymerase gamma (including both the large subunit and the small subunit) was cloned, expressed, and purified from insect cells by Gilead Sciences (Foster City, CA) ([13]). RNA PolII was purchased as part of the HeLaScribe nuclear extract in vitro transcription system kit from Promega (Madison, WI). The recombinant human PolRMT and the transcription factors mitochondrial transcription factor A (mtTFA) and B2 (mtTFB2) were purchased from Enzymax (Lexington, KY). FLAG epitope-tagged RNA PolI and PolIII complexes were isolated from rat NSN1 cells and HeLa cells, respectively ([17], [18]). The inhibition of DNA polymerases alpha, beta, and gamma, PolRMT, and PolII and the rate of single-nucleotide incorporation by PolRMT have been described previously in detail ([12], [13], [19]). Inhibition of RNA PolI and PolIII was studied using published methods ([20], [21]). All concentrations were final unless noted otherwise. For the RNA PolI inhibition assay, a reaction mixture containing 50 mM HEPES (pH 7.9), 20% glycerol, 100 mM KCl, 1 mM dithiothreitol (DTT), 50 μg/ml calf thymus DNA, 4 mM MgCl2, 5 or 80 μM UTP (0.25 μl of [5,6-^3H]UTP, >25 Ci/mmol; PerkinElmer), 1 mM noncompeting NTP, competing NTP (5 μM for GTP, CTP, and UTP and 25 μM for ATP), and various concentrations (0 to 500 μM) of NTP analogs was preincubated at 30°C for 5 min. […] After incubation at 30°C for 20 min to 1 h, the reactions were terminated by pipetting the mixtures onto DEAE-cellulose discs (DE81; Whatman), and the products analyzed as described previously ([20], [21]).
The RNA PolIII inhibition assay was conducted in a similar manner, except that the concentrations of the competing NTP were modified to 100 μM for CTP and GTP and 500 μM for ATP to compensate for the low assay signal at lower NTP concentrations.

[1] = Spare respiratory capacity in primary rat cardiomyocytes; settings: Sprague Dawley, rat, primary rat neonatal cardiomyocytes
[2] = system: mitochondrial respiration in primary rat cardiomyocytes; assay: as above; settings: primary rat cardiomyocytes, 3-day treatments
[3] = system: RNA transcription products from PolI (preribosome), PolII (myc), and PolRMT (ATP6) in PC-3 cells; assay: RNA transcripts in PC-3 cells by RT-PCR; format: cell-based, human; settings: 100 μM, 1-day treatment
Protocol: CX-5461, a known specific RNA PolI inhibitor, was used as the positive control ([25]). The growth medium was aspirated and replaced with 200 μl of 100 μM BMS-986094, 5 μM CX-5461, or DMSO control prepared in growth medium. At selected time points (0.5, 1, 4, 8, and 24 h), duplicate wells of the compounds and DMSO control were aspirated, the cells were washed 1× with PBS (pH 7.4), and 100 μl of RNA lysis buffer was added (Promega, Sunnyvale, CA). RNA was purified using the Wizard SV 96 total RNA isolation kit (Promega) and eluted in 100 μl of nuclease-free water. The TaqMan RNA-to-Ct 1-step kit (ABI/Life Technologies) was used for reverse transcription-quantitative PCR (RT-qPCR) amplification and quantification, using the 7900HT Fast real-time PCR system (ABI) under the following conditions: 15 min at 48°C for reverse transcription and 10 min at 95°C for activation, followed by 40 cycles of 15 s at 95°C for denaturation and 1 min at 60°C for annealing and extension. […] Transcripts were quantified relative to the standard curves, and the results expressed as the percentages of the average value of DMSO control wells.

[4] = Cytotoxicity in primary rat neonatal cardiomyocytes, 5 days; format: cell-based; settings: Sprague Dawley, 5-day treatment, read-out: CC50 (mean ± standard deviation) in primary rat cardiomyocytes
HCV replicon = system: HCV replicon; parameters: method as in PMID 21357300, PMID 21060109; settings: cited from earlier work
[5] = Chronic toxicology studies in rats; format: in vivo; settings: up to 39 weeks
[6] = Chronic toxicology studies in dogs; format: in vivo; settings: up to 39 weeks
Stimulated PBMCs = system: Stimulated PBMCs; parameters: method as in PMID 24419349; settings: 5 days; read-out: Mean CC50 ± SD in PBMCs Stimulated; cited from earlier work
[7] = system: Primary human hepatocytes; parameters: method as in PMID 24419349; settings: 5 days, read-out: Mean CC50 ± SD in Hepatic cells (primary); cited from earlier work

IC50 (RNA PolIII): > 500 µM
SMILES: C[C@@]1(O)[C@H](O)[C@@H](COP(=O)(O)OP(=O)(O)OP(=O)(O)O)O[C@H]1n1cnc2c(=O)[nH]c(N)nc21 [2′CMeGTP]

SMILES: COc1nc(N)nc2c1ncn2[C@@H]1O[C@H](COP(=O)(N[C@@H](C)C(=O)OCC(C)(C)C)Oc2cccc3ccccc23)[C@@H](O)[C@@]1(C)O (stereo partly shown) [BMS-986094]
CC50 at 3 days [1]: 430 ± 140 nM
selectivity of effect on spare respiratory capacity versus DNA and ATP levels [2]: selective inhibition of mitochondrial respiration
relative levels of RNA transcripts (preribosomal, myc, mitochondrial ATP6, total RNA) [3]: decreased the relative levels of multiple RNA transcripts
CC50 at 5 days [4]: 680 ± 320 nM
fold more potent than IDX184 against the HCV replicon (HCV replicon): 30- to 60 fold

SMILES: CC(C)OC(=O)[C@H](C)N[P@](=O)(OC[C@H]1O[C@@](C#N)(c2ccc3c(N)ncnn23)[C@](C)(O)[C@@H]1OC(=O)C(C)C)Oc1ccccc1 [GS-6620]
effects during chronic toxicology studies [5]: did not show
effects during chronic toxicology studies [6]: did not show
CC50 (Stimulated PBMCs): > 100 µM
CC50 [7]: > 100 µM
